Experimental findings from patent US5958981A, “γ-diketone compounds with inhibitory activity against platelet aggregation” (Meiji Seika Kabushiki Kaisha, priority 1994, dated 1999) are described below.

By IC50 is commonly meant the point on the concentration scale where inhibition reaches its midpoint. Low values mean greater potency, high ones weaker potency.

Counter-ions that a name gives are not always drawn.

This assay deals with human PRP (platelet rich plasma), platelet aggregation. As to the kind of experiment: Inhibitory activity against ADP-induced platelet aggregation in human PRP (platelet rich plasma). It counts as cell-based. The conditions noted are these: aggregation inducer ADP final concentration 5 μM, preincubated 2 min. The protocol:
Pharmacological Test: Inhibitory activity against platelet aggregation
The inhibitory activity of the compound according to the present invention against platelet aggregation was examined with human PRP (platelet rich plasma).
Nine volumes of a blood sample was taken out of the vein of a normal human with a syringe in which one volume of a 3.8% sodium citrate solution was charged. The blood sample was centrifuged at 170×g at room temperature for 10 min. The supernatant thus obtained was isolated as PRP. The residual blood sample that PRP had been taken out was centrifuged at 2,700×g for 15 minutes. The supernatant was then taken as platelet poor plasma (PPP).
A platelet aggregation test was conducted with an aggligometer (PAM-8C, manufactured by MEBANICKS Co., Ltd.). Compounds under test were dissolved in a 50% DMSO saline, a 50% methanol saline, or physiological saline. The compound under test and PRP were preincubated for 2 min. An aggregation inducer ADP (CHRONO-PAR REAGENTS 384 ADP, CHRONO-LOG Corp.) was used in the form of a dilution with saline so that the final concentration is 5 μM.
The anti-platelet aggregation activity was determined as an inhibition rate to platelet aggregation effect of ADP in the absence of a compound under test as follows. [formula]
Take `O=C(O)COc1ccc(C(=O)CCC(=O)c2cc3c(s2)CCNC3)cc1OCC(=O)O` [Example 1, [[4-[1,4-Dioxo-4-(4,5,6,7-tetrahydrothieno[3,2-c]pyridin-2-yl)butan-1-yl]-1,2-phenylene]dioxy]diacetic acid trifluoroacetate]: it took 130 nM to reach half-maximal inhibition (IC50).

In the case of `CCCCOC(=O)COc1ccc(C(=O)CCC(=O)c2cc3c(s2)CCNC3)cc1OCC(=O)OCCCC` [Example 2, Di-n-butyl [[4-[1,4-dioxo-4-(4,5,6,7-tetrahydrothieno[3,2-c]pyridin-2-yl)butan-1-yl]-1,2-phenylene]dioxy]diacetate hydrochloride], the IC50 was found to be 2000 nM.

In turn, `N=C(N)c1ccc(C(=O)CCC(=O)c2ccc(OCC(=O)O)c(OCC(=O)O)c2)cc1` [Example 3, [[4-[4-(4-Amidinophenyl)-1,4-dioxobutan-1-yl]-1,2-phenylene]dioxy]diacetic acid trifluoroacetate] returned a half-maximal inhibitory concentration (IC50) of 17 nM.

For `CCCCOC(=O)COc1ccc(C(=O)CCC(=O)c2ccc(C(=N)N)cc2)cc1OCC(=O)OCCCC` [Example 4, Di-n-butyl [[4-[4-(4-amidinophenyl)-1,4-dioxobutan-1-yl]-1,2-phenylene]dioxy]diacetate trifluoroacetate], the half-maximal inhibitory concentration (IC50) was 23 nM.

The molecule `CCCCOC(=O)COc1ccc(C(=O)CCC(=O)c2ccc(C(=N)N)cc2)cc1` [Example 5, n-Butyl 4-[4-(4-amidinophenyl)-1,4-dioxobutan-1-yl]phenoxyacetate hydroiodide] showed an IC50 of 43 nM.

Take `N=C(N)c1ccc(C(=O)CCC(=O)c2ccc(OCC(=O)O)cc2)cc1` [Example 6, 4-[4-(4-Amidinophenyl)-1,4-dioxobutan-1-yl]phenoxyacetic acid hydrochloride]: the IC50 is < 100 nM.
